The values below come from patent US20090325977A1 (priority 2004, published 2009).

For one assay, the system named is MG63 cells. Conditions: MG63 cells stimulated by PDGF-AA; read-out: IC50, PDGFR-α dependent cellular proliferation; cited from earlier work.
Assay [1] relates to basal endothelial cell proliferation (HUVEC). The assay is described as follows: HUVEC assay, basal endothelial cell proliferation. The assay is classed as cell-based. Conditions: Homo sapiens, no VEGF stimulation.
Assay [2] concerns VEGF-stimulated endothelial cell proliferation (HUVEC). The assay is described as follows: HUVEC assay, VEGF-stimulated endothelial cell proliferation. Type of assay: cell-based. Conditions: Homo sapiens.
Assay [3] addresses stem cell factor receptor tyrosine kinase (SCF RTK, c-kit) (Homo sapiens, UniProt P10721). The assay is described as follows: inhibition of c-kit. Type of assay: biochemical.
In a further assay the test system is Calu-6 tumour xenograft. Description: Calu-6 tumour xenograft, in vivo solid tumour model. Conditions: once-daily oral, 28 days.

Where only a bound is given, the exact number is not on record here.

Chain of stem cell factor receptor tyrosine kinase (SCF RTK, c-kit) (P10721 26-976): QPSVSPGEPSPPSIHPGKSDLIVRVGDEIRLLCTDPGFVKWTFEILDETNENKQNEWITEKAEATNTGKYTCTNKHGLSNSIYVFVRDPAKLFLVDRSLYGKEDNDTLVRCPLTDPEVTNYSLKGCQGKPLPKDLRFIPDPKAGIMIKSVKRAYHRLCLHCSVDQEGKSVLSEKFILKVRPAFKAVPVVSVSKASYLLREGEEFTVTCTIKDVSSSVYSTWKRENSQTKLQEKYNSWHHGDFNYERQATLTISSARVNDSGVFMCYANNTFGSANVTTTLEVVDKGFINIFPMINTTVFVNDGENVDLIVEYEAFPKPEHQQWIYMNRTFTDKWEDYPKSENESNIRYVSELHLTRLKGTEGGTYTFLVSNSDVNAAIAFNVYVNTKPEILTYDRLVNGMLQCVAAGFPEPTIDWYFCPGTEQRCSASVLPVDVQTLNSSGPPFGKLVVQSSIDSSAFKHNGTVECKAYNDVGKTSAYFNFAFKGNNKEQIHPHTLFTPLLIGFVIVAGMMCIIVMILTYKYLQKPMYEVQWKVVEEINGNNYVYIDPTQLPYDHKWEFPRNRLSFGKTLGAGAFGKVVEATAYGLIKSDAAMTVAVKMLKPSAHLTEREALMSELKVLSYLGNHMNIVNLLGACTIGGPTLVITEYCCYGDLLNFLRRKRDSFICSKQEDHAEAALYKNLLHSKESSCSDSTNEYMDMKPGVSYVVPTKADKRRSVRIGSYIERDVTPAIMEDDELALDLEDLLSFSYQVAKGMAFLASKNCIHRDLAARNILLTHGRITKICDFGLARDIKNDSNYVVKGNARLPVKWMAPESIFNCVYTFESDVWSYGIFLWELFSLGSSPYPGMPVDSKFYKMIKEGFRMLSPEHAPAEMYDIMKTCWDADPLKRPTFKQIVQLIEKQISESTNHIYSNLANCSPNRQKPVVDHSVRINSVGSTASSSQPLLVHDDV

For the molecule `COc1cc2c(Oc3ccc4[nH]c(C)cc4c3F)ncnc2cc1OCCCN1CCCC1` [AZD2171, 4-(4-fluoro-2-methyl-1H-indol-5-yloxy)-6-methoxy-7-(3-(pyrrolidin-1-yl)propoxy)quinazoline], the IC50 in the assay with MG63 cells was 0.04 µM; in assay [1] it was over 0.5 µM; in assay [2], 0.0004 ± 0.0002 µM. Also, the inhibition of c-kit result in assay [3] was “inhibits c-kit”. The “inhibition of Calu-6 tumour xenograft growth” value in the assay on Calu-6 tumour xenograft (1.5 mg/kg/day, P<0.01) amounted to 49%; with Calu-6 tumour xenograft (3 mg/kg/day, P<0.0001) it was 69%; in the assay with Calu-6 tumour xenograft (6 mg/kg/day, P<0.0001), 91%.
